# Experimental data: ChEMBL document CHEMBL4304808, “PROTAC Degradation of IRAK4 for the Treatment of Neurodegenerative and Cardiovascular Diseases” (ACS Med Chem Lett, 2019)
# pIC50: −log10 of the molar value.
# Legend:
# [1] = biological target: T1, Interleukin-1 receptor-associated kinase 4 (Homo sapiens, UniProt Q9NWZ3); assay: Inhibition of N-terminal GST-tagged human IRAK4 (2 to end residues) expressed in baculovirus infected Sf9 cells using Ser/Thr 7 peptide as substrate in presence of ATP after 1 hr by Z'-LYTE assay
# T1 sequence (Q9NWZ3 whole entry): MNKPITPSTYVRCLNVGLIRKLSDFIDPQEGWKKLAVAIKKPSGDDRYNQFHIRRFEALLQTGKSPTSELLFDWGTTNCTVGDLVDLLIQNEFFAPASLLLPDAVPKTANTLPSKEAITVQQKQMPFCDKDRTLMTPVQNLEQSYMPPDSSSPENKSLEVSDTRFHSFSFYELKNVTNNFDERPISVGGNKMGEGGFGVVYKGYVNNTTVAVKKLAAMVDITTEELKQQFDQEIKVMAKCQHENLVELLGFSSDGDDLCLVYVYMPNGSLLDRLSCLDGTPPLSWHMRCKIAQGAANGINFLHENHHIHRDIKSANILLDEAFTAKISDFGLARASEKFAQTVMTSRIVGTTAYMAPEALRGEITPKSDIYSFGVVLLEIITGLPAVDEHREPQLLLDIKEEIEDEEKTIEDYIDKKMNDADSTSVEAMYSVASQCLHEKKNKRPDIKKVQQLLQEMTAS
# [2] = biological target: T2, Protein cereblon/Interleukin-1 receptor-associated kinase 4 (Homo sapiens, UniProt Q9NWZ3+Q96SW2); assay: Protac activity at E3 ubiquitin ligase/IRAK4 in human MCF7 cells assessed as IRAK4 degradation after 24 hrs by Western blot analysis; assay type: cell-based
# Target sequence in this assay (Q96SW2 whole entry, one chain of several): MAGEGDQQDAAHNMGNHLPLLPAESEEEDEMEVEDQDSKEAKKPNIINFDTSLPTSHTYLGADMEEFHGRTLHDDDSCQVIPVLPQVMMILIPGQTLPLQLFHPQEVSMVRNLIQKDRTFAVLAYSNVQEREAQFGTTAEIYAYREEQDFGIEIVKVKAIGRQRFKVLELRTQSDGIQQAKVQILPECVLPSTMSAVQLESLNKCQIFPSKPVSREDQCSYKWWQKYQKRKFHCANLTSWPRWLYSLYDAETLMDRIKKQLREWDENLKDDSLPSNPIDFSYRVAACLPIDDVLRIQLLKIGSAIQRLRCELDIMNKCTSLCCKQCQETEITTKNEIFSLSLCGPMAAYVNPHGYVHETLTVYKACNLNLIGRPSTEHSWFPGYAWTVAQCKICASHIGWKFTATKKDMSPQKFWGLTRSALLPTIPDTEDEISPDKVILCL
# [3] = biological target: T2, Protein cereblon/Interleukin-1 receptor-associated kinase 4; assay: Protac activity at E3 ubiquitin ligase/IRAK4 in human MCF7 cells assessed as IRAK4 degradation after 24 hrs by Western blot analysis relative to control; assay type: cell-based
# Target sequence in this assay (Q96SW2 whole entry, looked up, one chain of several): as the sequence (Q96SW2 whole entry, one chain of several) above
Compound,pIC50 [1],DC50 [2] [nM],Emax [3] [%]
COc1cc2nn(C3CCN(CCOCCOc4ccc5c(c4)CN(C4CCC(=O)NC4=O)C5=O)CC3)cc2cc1NC(=O)c1cccc(C(F)(F)F)n1 (stereo not given),> 7.52,< 30,> 50
O=C1CCC(N2C(=O)c3ccc(OCCOCCOCCN4CCN(Cc5ccc6c(c5)nc(NC(=O)c5cccc(C(F)(F)F)c5)n6[C@H]5CC[C@@H](CO)CC5)CC4)cc3C2=O)C(=O)N1 (stereo not given in full),> 7.52,< 30,> 70
COc1cc2nn(C3CCN(CCOCCOc4ccc5c(c4)C(=O)N(C4CCC(=O)NC4=O)C5=O)CC3)cc2cc1NC(=O)c1cccc(C(F)(F)F)n1 (stereo not given),> 7.52,< 30,> 50
O=C1CCC(N2C(=O)c3ccc(N4CCC(CN5CCN(Cc6ccc7c(c6)nc(NC(=O)c6cccc(C(F)(F)F)c6)n7[C@H]6CC[C@@H](CO)CC6)CC5)CC4)cc3C2=O)C(=O)N1 (stereo not given in full),> 7.52,< 30,> 70
O=C1CCC(N2C(=O)c3ccc(OC4CCC(CN5CCN(Cc6ccc7c(c6)nc(NC(=O)c6cccc(C(F)(F)F)c6)n7[C@H]6CC[C@@H](CO)CC6)CC5)CC4)cc3C2=O)C(=O)N1 (stereo not given in full),> 7.52,30 to 100,> 70
